Laboratory results reported in the supplement of paper PMC5844555.

Legend:
Assay in all cases: 3' UTR reporter interaction score (median-centred robust z-score of log2 firefly/Renilla activity); higher = less repression of the 3' UTR reporter
Conditions in all cases: HEK293T; 48 h
FBXW7 = test system: FBXW7
Summary of the method: (§1)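 A firefly luc2P reporter carrying the gene's 3' UTR (100 ng), Renilla pRL-TK control (20 ng) and miRNA mimic (2.5 pmol) were co-transfected with DharmaFECT Duo into HEK293T cells plated at 10,000/well in 96-well plates. Luciferase activities were read 48 h post-transfection. The interaction score is the log firefly/Renilla ratio as a per-plate robust z-score from median and median absolute deviation, median-centred per miRNA, and more negative indicates interaction. Values are averages of at least two independent screens.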

MYT1L = test system: MYT1L
Summary of the method: as §1

HRAS = test system: HRAS
Summary of the method: as §1

PHOX2B = test system: PHOX2B
Summary of the method: as §1

MYB = test system: MYB
Summary of the method: as §1

TP53 = test system: TP53
Summary of the method: as §1

MYC = test system: MYC
Summary of the method: as §1

NOTCH1 = test system: NOTCH1
Summary of the method: as §1

PHF6 = test system: PHF6
Summary of the method: as §1

MYCN = test system: MYCN
Summary of the method: as §1

BRCA2 = test system: BRCA2
Summary of the method: as §1

RB1 = test system: RB1
Summary of the method: as §1

ZEB2 = test system: ZEB2
Summary of the method: as §1

EZH2 = test system: EZH2
Summary of the method: as §1

Row | Sequence | 3' UTR reporter interaction score (FBXW7) | 3' UTR reporter interaction score (MYT1L) | 3' UTR reporter interaction score (HRAS) | 3' UTR reporter interaction score (PHOX2B) | 3' UTR reporter interaction score (MYB) | 3' UTR reporter interaction score (TP53) | 3' UTR reporter interaction score (MYC) | 3' UTR reporter interaction score (NOTCH1) | 3' UTR reporter interaction score (PHF6) | 3' UTR reporter interaction score (MYCN) | 3' UTR reporter interaction score (BRCA2) | 3' UTR reporter interaction score (RB1) | 3' UTR reporter interaction score (ZEB2) | 3' UTR reporter interaction score (EZH2)
1 | UGGUGGGCCGCAGAACAUGUGC | 1.65 | 1.92 | -0.926 | 0.685 | -0.29 | 0.539 | 0.0166 | -1.38 | -0.487 | 0.848 | -0.495 | -1.35 | 0.648 | -0.375
2 | ACUCCAUUUGUUUUGAUGAUGGA | -0.453 | -0.15 | -0.269 | 0.953 | -0.2 | 0.239 | -0.0596 | -0.518 | 0.594 | 0.165 | -0.329 | -0.0878 | 0.912 | -0.0207
3 | UUCAAGUAAUUCAGGAUAGGUU | 1.51 | 1.44 | -1.14 | 0.967 | 1.26 | -0.282 | -1.49 | 1.02 | -0.939 | 0.732 | 0.455 | -1.95 | 0.133 | -4.18
4 | AGGAAGCCCUGGAGGGGCUGGAGGU | -0.101 | 1.24 | 0.456 | 1.18 | 0.39 | 0.127 | -0.314 | -1.34 | -0.529 | 1.43 | -1.21 | -0.165 | -0.152 | -0.359
5 | UAAGUGCUUCCAUGUUUCAGUGG | 0.421 | -1.46 | 0.114 | -0.0319 | -0.991 | -0.245 | -0.0462 | 0.788 | 0.57 | 0.305 | 0.202 | 0.571 | 0.969 | -0.665
6 | CUCCAGAGGGAUGCACUUUCU | -0.219 | 0.128 | -0.937 | 1.08 | -0.659 | 0.339 | 0.629 | 0.885 | 1.04 | -0.234 | -0.169 | 0.459 | -0.701 | 0.363
7 | AAGCCUGCCCGGCUCCUCGGG | 0.255 | -0.815 | 0.291 | 0.478 | 0.0778 | -1.82 | 0.642 | -0.439 | -0.0107 | -0.588 | 0.422 | -0.201 | 1.11 | -0.223
8 | CAUCUGGAGGUAAGAAGCACUUU | 0.143 | -1.9 | 0.165 | -0.503 | -2.31 | -1.18 | -0.242 | -0.32 | 1.19 | -0.232 | 0.269 | 0.4 | 1.48 | 0.237
9 | UGGUUUACCGUCCCACAUACAU | 0.14 | 1.3 | -0.0846 | 0.385 | 0.643 | -0.635 | -0.285 | -0.0746 | -0.512 | 0.327 | -0.68 | 0.158 | 1.07 | 0.684
10 | UUGAGAAUGAUGAAUCAUUAGG | -0.3 | -0.0444 | 1.09 | -0.12 | 0.0167 | 0.335 | 0.0578 | 0.0298 | -1.78 | -0.554 | 0.13 | -0.111 | -0.412 | -0.195
11 | AUGGAGAUAGAUAUAGAAAU | 0.0761 | -1.67 | 0.428 | 0.37 | -0.0865 | 0.174 | 0.503 | -0.424 | -0.821 | -0.424 | -0.571 | -0.936 | 1.49 | 1.16
12 | UCAGUGCAUGACAGAACUUGGG | 0.501 | 0.827 | -1.05 | -1.31 | -1.5 | -0.341 | 0.213 | 0.274 | 1.76 | 0.0157 | -0.0322 | -2.16 | 1.1 | 0.0466
13 | UCUUGUGUUCUCUAGAUCAGU | -0.787 | -0.612 | 0.641 | -1.16 | 0.224 | -0.0759 | -0.281 | -0.00434 | -1.56 | 0.747 | 0.0649 | 0.632 | 0.366 | 0.661
14 | AGUAUGUUCUUCCAGGACAGAAC | 0.574 | -0.575 | 0.113 | -1.01 | 0.712 | 0.258 | 0.576 | -0.607 | -0.447 | -0.169 | -2.15 | 0.243 | 0.181 | 0.482
15 | UAACACUGUCUGGUAACGAUGU | 0.00413 | -5.06 | 0.337 | -0.223 | 0.219 | -0.247 | -0.268 | 0.173 | 1.8 | -0.465 | 0.575 | 0.104 | -5.66 | -0.274
16 | AGGCGGGGCGCCGCGGGACCGC | -0.475 | -0.425 | -0.439 | -0.317 | -0.412 | -0.353 | -0.234 | 0.236 | 1.42 | -0.386 | -0.123 | 0.467 | 0.258 | -1.53
17 | GUUCUCCCAACGUAAGCCCAGC | 1.08 | 0.882 | 0.00988 | 1.74 | -4.37 | 0.732 | -0.299 | -0.479 | 0.685 | 0.962 | -0.8 | -0.277 | -0.194 | 0.22
18 | UGAAACAUACACGGGAAACCUCUU | 1.59 | 0.0487 | -0.108 | -0.468 | -0.521 | -0.757 | -4.26 | 2.03 | 2.68 | -2.74 | 0.436 | -0.893 | 0.135 | 0.948
19 | UGGAGAGAAAGGCAGUUC | -1.52 | 0.463 | -0.0201 | -0.292 | 0.823 | -1.31 | 0.053 | -0.015 | -0.104 | 0.412 | -0.859 | -0.051 | 1.17 | -0.838
